Reference: patent publication US10617695B2, “Ophthalmic compositions containing alcaftadine” (Vistakon Pharmaceuticals, LLC, priority 2006, dated 2020)

What was measured:
[1] = tested on: guinea pigs systemically sensitized to rabbit skin squames and topically challenged with rabbit allergens; assay: Anti-allergic activity against acute-phase allergic conjunctivitis (edema and erythema) in sensitized guinea pigs; format: in vivo, guinea pig
Description: The effect of alcaftadine against acute-phase reactions of allergic conjunctivitis (edema and erythema) was compared to the effect of other known anti-allergens in guinea pigs that were systemically sensitized to rabbit skin squames and topically challenged 17 days later with rabbit allergens.
Anesthetized male albino guinea pigs (Dunkin-Hartley) weighing about 230 to 250 g were injected intramuscularly at the left quadriceps with 50 μl of purified rabbit allergens. The rabbit allergens consisted of Al(OH)3-adsorbed rabbit squames (Halab, Brussels, Belgium), which had been homogenized and washed clean of preservative (0.5% (V/V) phenol) with sterile physiologic saline.
Alcaftadine was […] administered to each eye in dosages ranging from 0.005 mg/kg to 1.0 mg/kg at 24 hours and 1 hour before challenge. Other test compounds included oxatomide, ketotifen, astemizole, cetirizine, loratadine and terfenadine, administered at dosages of 0.1 mg/kg and 1.0 mg/kg.
At day 17 post sensitization the left eye was challenged by instilling 25 μl of 100% normal rabbit serum. At the same time as the allergen challenge, the right eye was instilled with 25 μl of 1.5 mg/ml histamine dihydrochloride (98%, Sigma) dissolved in deionised, Millipore-filtered water.
Thirty minutes after challenge, edema and erythema were assessed in the tarsal and bulbar conjunctiva of both eyes and scored as absent (0), weak (1), moderate (2), severe (3), or very severe (4) by a trained technician.

[2] = Systemic (plasma) levels of alcaftadine in patients; format: in vivo, human; conditions: for Mean Cmax: plasma, 0.25% ophthalmic solution bilaterally
Description: Patients were bilaterally dosed with 0.25% ophthalmic solutions of alcaftadine for seven days. The plasma levels of those patients was assessed pre-dose, and 0.25, 0.5, 1, 1.5, 2, 3, 4, 6, 8, 12, and 18 hour post medication instillation on days one and seven. Plasma concentrations of Alcaftadine reached Cmax rapidly and declined to below the lower limit of quantification (0.01 ng/mL) by 3 hours post dosing.

[3] = tested on: murine model of allergic conjunctivitis; assay: Eosinophil and neutrophil recruitment 24 hours post-CAC in murine model of allergic conjunctivitis, late phase; format: in vivo, mice; conditions: alcaftadine 2.5 mg/ml, 5 μL topical at 1 and 2 hours pre-challenge
Description: Alcaftadine ophthalmic solution was evaluated to determine if topical treatment could reduce early phase and late phase allergic inflammation in a murine model of allergic conjunctivitis. Evans Blue Dye Leakage was used to assess the impact on vascular permeability during the early phase inflammatory response Conjunctiva was taken at 24 hours, stained, and assessed for presence of neutrophil and eosinophil infiltration to evaluate late phase anti-inflammatory activity.
All mice were sensitized with short ragweed (SRW) in aluminum hydroxide via intraperitoneal administration (Day 0, 7, and 14) and eye drop instillation (Day 8 and 15). On Day 20, mice were again sensitized with eye drops of SRW.
On Day 27, two topical administrations of the clinical dose of alcaftadine 2.5 mg/ml or vehicle were instilled at 1 and 2 hours pre-challenge. Alcaftadine and vehicle were administered topically at a 5 μL saturating dose as treatment arms based on a randomization code. […]
Vascular leak was determined by means of Evans Blue Dye Extravasation following allergen challenge for N=6 animals except the alcaftadine treatment arm, where N=4 animals were sacrificed and tested (two animals died during the procedure). […] The numbers of eosinophils and neutrophils were determined both by light microscopy of Giemsa or H&E stained sections or by immunohistochemistry using cell specific monoclonal antibodies. […]

[4] = tested on: RBL-CCR1 (Rat Basophil Leukemia-Chemokine Receptor-1) cell line; assay: Mast cell degranulation / cell stabilization in RBL-CCR1 cells; format: cell-based
Description: The cell stabilization potential of alcaftadine was evaluated using the RBL-CCR1 (Rat Basophil Leukemia-Chemokine Receptor-1) cell line as a way of investigating its ability to effect mast cell stabilization. The use of basophil cell lines to assess anti-allergic drugs for cell stabilization potential is well established. Physiologically, basophils are similar to mast cells, containing pre-formed inflammatory mediators that are released through a similar degranulation process involving IgE cross-linking. Because these cell lines are readily available, they present efficiencies over conducting stabilization assays in mast cell lines.
Cultured RBL-CCR1 cells were sensitized to anti-DNP IgE. Following sensitization, cells were treated with various concentrations of alcaftadine or its major active metabolite (0.083%, 0.0083% and 0.00083%) or ophthalmic vehicle (placebo), and stimulated with DNP and/or MIP-1a (Macrophage Inflammatory Protein-1 alpha, a degranulation enhancer) to induce degranulation. A 10× and 100× placebo control solution (ophthalmic vehicle solution) in D-DEM (Dulbecco's modified Eagle's medium) was also employed.
However, co-stimulation induced a robust degranulation response.

[5] = tested on: SWR/J mice sensitized with short ragweed allergen; assay: Topical alcaftadine in murine model of active anaphylaxis (allergic conjunctivitis, short ragweed challenge); format: in vivo, mouse; conditions: alcaftadine 0.0625% ophthalmic solution, 15 minutes after allergen challenge
Description: Male SWR/J mice (The Jackson Laboratory, Bar Harbor, Me.), aged 5-7 weeks and weighing between 12.55 and 17.73 grams, were sensitized with a 100 μl dose of a suspension of 50 μg short ragweed allergen (Greer Labs, Inc., Lenoir, N.C.) and 1 mg of aluminum hydroxide (Fisher Scientific, Pittsburgh, Pa.) by intraperitoneal injection at two weeks and prior to treatment and challenge. […] The mice were then dosed topically in the eye with an alcaftadine 0.0625% ophthalmic solution, positive control (ophthalmic solution comprising combination of ketotifen 0.05% and pheniramine 0.5%), or placebo prior to an ocular challenge with 1.5 mg short ragweed allergen in phosphate buffered saline. Fifteen (15) minutes after allergen challenge, mice were evaluated for clinical signs of allergic conjunctivitis by scoring for conjunctival redness, chemosis, tearing, and lid edema. Severity of clinical signs was scored by a trained technician using a standardized 0-2 scale.

[6] = Chemical stability of alcaftadine solution in non-sterilized or gamma irradiated LDPE bottles and glass vials (HPLC); format: physicochemical; conditions: Glass Vials; 5° C.; 6 days

## CN1CCC(=C2c3ccccc3CCn3c(C=O)cnc32)CC1 [Alcaftadine, 6,11-dihydro-11-(1-methyl-4-piperidinylidene)-5H-imidazo[2,1-b][3]benzazepine-3-carboxaldehyde]
[1]; dosed 24 hours and 1 hour before challenge, edema and erythema scored 30 minutes after challenge
  dose from which acute allergic symptoms were significantly alleviated: 0.1 mg/kg
[1]; on an equivalent mg/kg basis
  potency compared with astemizole, cetirizine and loratadine: significantly more potent
  potency compared with oxatomide, ketotifen and terfenadine: more potent
[2]; all subjects
  maximum plasma concentrations: less than 0.12 ng/mL
[2]; Day 1
  Mean Cmax: 0.051 ng/mL
[2]; Day 7
  Mean Cmax: 0.060 ng/mL
[2]; post dosing, lower limit of quantification 0.01 ng/mL
  time by which plasma concentrations declined to below the lower limit of quantification: ≤ 3 h
[3]
  eosinophil or neutrophil recruitment in the late phase response: did not prevent eosinophil or neutrophil recruitment
[3]; listed as alcaftadine
  eosinophil or neutrophil recruitment in the late phase response: does not appear to inhibit eosinophil or neutrophil recruitment
[4]
  overall membrane stabilization: effective membrane stabilizing agents
[4]; 10× dose level
  stabilization effect added to that of placebo: enhanced the stabilization effect
[4]; […], DNP-HSA alone, MIP-1a alone, and co-stimulation
  degranulation at the highest concentration: unanticipated and significant degranulation
[4]; co-stimulation assay, concentrations of […] and […], p<0.0001 for both concentrations
  cell stabilization compared to co-stimulation control and negative controls (placebo 10× and placebo 100×): superior at cell stabilization
[5]
  preventing tearing: as effective as the positive control and more effective than placebo
[5]; positive control ketotifen 0.05% and pheniramine 0.5%
  preventing itching, redness, chemosis and lid edema: more effective than the positive control
[6]
  Alcaftadine: 2.52 mg/mL
  Oxide: 0.008%
